The values below come from patent US20260355079A1, “Oral Care Compositions Comprising Hops Beta Acids And Fluoride Ions” (priority 2019, published 2026).

The test deals with 3-day biofilm (plaque biofilm). Put plainly: in vitro plaque glycolysis model (iPGRM): acid production and acid (glycolysis) inhibition. The conditions noted are these: TABLE 2; 2 min treatment, slurry in water (1:5). In kind it is cell-based, plaque microorganisms from pooled human saliva. The method, then:
Acid Production and Acid Inhibition [%]
Acid production and acid inhibition were determined with the in vitro plaque glycolysis model (iPGRM). The purpose of this technique is to provide a simple and quick method for determining if compounds have an influence on the metabolic pathways that plaque microorganisms utilize to produce toxins that adversely affect gingival health.
The in vitro plaque glycolysis model (iPGRM) is a technique in which plaque is grown from human saliva and treated with various agents to determine anti-glycolytic activity of treatments. When bacteria convert sugar into energy with the help of enzymes, acids are formed. These acids demineralize and damage the dental enamel. The purpose of this technique is to provide a simple and quick method for determining if treatment compounds have an inhibitory effect on the metabolic pathways that plaque microorganisms utilize for the production of acids or toxins and/or inhibit their growth. […]
[…] The pH of the media solutions was then measured to determine the amount of glycolysis inhibition relative to a negative control.
On Day 1, new glass rods (5 mm×90 mm) were polished approximately 25 mm from the un-tapered end on a lathe with silicon carbide paper of 240, 320, 400, and 600 grit used sequentially. […] After polishing, rods were stored until ready to run test. […]

With `[H]/N=C(\N/C(=N/[H])NCCCCCCNC(=N)NC(=N)Nc1ccc(Cl)cc1)Nc1ccc(Cl)cc1` [Chlorhexidine], the “Acid Production (ΔpH), Mean” value worked out at 0.30.
